Test results taken from ChEMBL document CHEMBL1135763, “Discovery of aminothiazole inhibitors of cyclin-dependent kinase 2: synthesis, X-ray crystallographic analysis, and biological activities” (J Med Chem, 2002).
pIC50: −log10 of the molar value.

Assays:
[1] = biological target: Cyclin-dependent kinase 1/cyclin B (Homo sapiens, UniProt P06493); test: Inhibitory activity against baculovirus expressed Cyclin dependent kinase 1-cyclinB; assay type: protein-complex assay
A2780 = test: cells; conditions: Homo sapiens
Description: Cytotoxic activity against A2780 human ovarian carcinoma cell line

[2] = biological target: Cyclin-dependent kinase 2/cyclin E (Homo sapiens, UniProt P24941); test: Inhibitory activity against baculovirus expressed Cyclin dependent kinase 2-cyclinE; assay type: protein-complex assay
[3] = biological target: Cyclin-dependent kinase 4/cyclin D1 (Homo sapiens, UniProt P11802); test: Inhibitory activity against baculovirus expressed Cyclin dependent kinase 4-cyclinD1; assay type: protein-complex assay
Chain of Cyclin-dependent kinase 4/cyclin D1 (P11802 whole entry): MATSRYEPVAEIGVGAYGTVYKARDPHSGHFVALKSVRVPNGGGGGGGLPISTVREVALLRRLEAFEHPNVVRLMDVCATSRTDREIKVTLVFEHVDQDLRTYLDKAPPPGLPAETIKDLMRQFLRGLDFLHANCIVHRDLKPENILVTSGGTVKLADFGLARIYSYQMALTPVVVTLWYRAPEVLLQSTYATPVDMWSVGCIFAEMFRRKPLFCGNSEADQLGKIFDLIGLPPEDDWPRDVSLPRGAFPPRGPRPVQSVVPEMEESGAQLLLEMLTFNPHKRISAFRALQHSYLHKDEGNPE
Chain of Cyclin-dependent kinase 4/cyclin D1 (P24385 whole entry, further chain): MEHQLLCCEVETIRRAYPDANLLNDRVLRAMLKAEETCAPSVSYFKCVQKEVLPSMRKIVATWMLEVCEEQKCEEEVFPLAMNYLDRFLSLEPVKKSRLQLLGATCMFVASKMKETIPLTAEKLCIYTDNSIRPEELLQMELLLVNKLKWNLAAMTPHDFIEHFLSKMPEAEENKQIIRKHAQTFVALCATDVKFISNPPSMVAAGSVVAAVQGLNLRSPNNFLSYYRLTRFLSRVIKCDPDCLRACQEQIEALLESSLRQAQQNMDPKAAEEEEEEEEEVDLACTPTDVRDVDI

CC(C)(C)c1cnc(CSc2cnc(NC(=O)Nc3c(F)cccc3F)s2)o1
pIC50 [1]: 8.00 | pIC50 (A2780): 6.62 | pIC50 [2]: 8.70 | pIC50 [3]: 6.41

CC(C)(C)c1ncc(CSc2cnc(NC(=O)Cc3ccccc3)s2)o1
pIC50 [2]: 8.52

C[C@@H](C(=O)Nc1ncc(SCc2ncc(C(C)(C)C)o2)s1)c1ccccc1
pIC50 (A2780): 6.05 | pIC50 [2]: 8.22 | pIC50 [3]: 5.50

CC(=O)Nc1ncc(SCc2ccncc2)s1
pIC50 [2]: < 6.00

CC(C)C(=O)Nc1ncc(S(=O)(=O)Cc2ncc(C(C)(C)C)o2)s1
pIC50 [1]: < 6.60 | pIC50 [2]: 6.60

CC(=O)Nc1ncc(SCc2ncc(C(C)C)o2)s1
pIC50 [1]: 7.22 | pIC50 (A2780): 6.70 | pIC50 [2]: 8.22 | pIC50 [3]: 5.97

CCNC(=O)Nc1ncc(SCc2ncc(C(C)(C)C)o2)s1
pIC50 (A2780): 6.92 | pIC50 [2]: 7.30

CC(=O)Nc1nc(CSc2cnc(NC(C)=O)s2)cs1
pIC50 [2]: < 6.00

CC(=O)Nc1ncc(SCC(=O)OCc2ccccc2)s1
pIC50 [1]: 5.62 | pIC50 [2]: 6.47 | pIC50 [3]: 4.72

CC(C)OC(=O)Nc1ncc(SCc2ncc(C(C)(C)C)o2)s1
pIC50 [1]: 7.74 | pIC50 (A2780): 6.19 | pIC50 [2]: 7.60 | pIC50 [3]: 5.52

CC(=O)Nc1ncc(SCc2nc(C)c(C)o2)s1
pIC50 [2]: 6.44

CC(C)(C)c1cnc(CSc2cnc(NC(=O)OCc3ccccc3)s2)o1
pIC50 (A2780): 5.98 | pIC50 [2]: 6.82

CC(C)C(=O)Nc1ncc([S+]([O-])Cc2ncc(C(C)(C)C)o2)s1 (stereo not given)
pIC50 [1]: 6.85 | pIC50 [2]: 6.85 | pIC50 [3]: < 4.60

CC(C)(C)c1cnc(CSc2cnc(NC(=O)c3ccccc3)s2)o1
pIC50 [3]: 6.02

CCN(C)C(=O)CSc1cnc(NC(C)=O)s1
pIC50 [2]: < 4.60

CC(C)(C)c1cnc(CSc2cnc(NC(=O)Nc3ccc(F)cc3)s2)o1
pIC50 [1]: 7.72 | pIC50 (A2780): 6.05 | pIC50 [2]: 7.96 | pIC50 [3]: 6.05

CCC(CC)CSc1cnc(NC(C)=O)s1
pIC50 [2]: < 6.00

CC(=O)Nc1ncc(SCC(=O)O)s1
pIC50 [2]: < 4.60

CC(C)(C)C(=O)Nc1ncc(SCc2ncc(C(C)(C)C)o2)s1
pIC50 [1]: 7.05 | pIC50 (A2780): 6.60 | pIC50 [2]: 7.77 | pIC50 [3]: 5.46

C[C@H](C(=O)Nc1ncc(SCc2ncc(C(C)(C)C)o2)s1)c1ccccc1
pIC50 [2]: 7.22

CC(=O)Nc1ncc(SCc2c(C)noc2C)s1
pIC50 [2]: < 6.00

CC(C)(C)c1cnc(CSc2cnc(NC(=O)Nc3c(Cl)cccc3Cl)s2)o1
pIC50 [1]: 7.52 | pIC50 (A2780): 5.82 | pIC50 [2]: 8.52 | pIC50 [3]: < 6.00

CC(C)C(=O)Nc1ncc(SCc2ncc(C(C)(C)C)o2)s1
pIC50 [1]: 7.52 | pIC50 (A2780): 7.30 | pIC50 [2]: 8.30 | pIC50 [3]: 6.05

CCc1coc(CSc2cnc(NC(C)=O)s2)n1
pIC50 [2]: 6.70

COC(=O)C(Sc1cnc(NC(C)=O)s1)c1ccccc1 (stereo not given)
pIC50 [2]: < 6.00
